Test systems include CCRF-CEM leukemia; EKVX NSCLC; HCT-15 colon; HOP-92 NSCLC; K-562 leukemia; OVCAR-5 ovarian; PC-3 prostate; SK-MEL-2 melanoma; UACC-62 melanoma; UO-31 renal.
What all share (experiment): inhibition of tumour cell growth, NCI panel, 48 h

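Exposure lasted 48 hours, with cells grown in 96-well plates and compounds tested at five concentrations. GI50: concentration for 50% inhibition of growth. TGI marks complete inhibition of growth.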

Consider `CN1CCN(Cn2nc(-c3cc(F)c(Cl)cc3Cl)oc2=S)CC1`, for which the GI50 in the assay with CCRF-CEM leukemia was 33.4 µM; in the assay on EKVX NSCLC, more than 100 µM; with HCT-15 colon, 39.7 µM; in the assay on HOP-92 NSCLC, more than 100 µM; in the assay with K-562 leukemia, 41.4 µM; in the assay on OVCAR-5 ovarian, more than 100 µM. For the same compound, the GI50 was 43 µM in the assay with PC-3 prostate, more than 100 µM with SK-MEL-2 melanoma, 21.2 µM with UACC-62 melanoma and 74.1 µM with UO-31 renal. Also, the TGI with CCRF-CEM leukemia, with EKVX NSCLC, in the assay on HCT-15 colon, in the assay with HOP-92 NSCLC, with K-562 leukemia and with OVCAR-5 ovarian was more than 100 µM throughout. The TGI in the assay on PC-3 prostate was more than 100 µM; in the assay with SK-MEL-2 melanoma, more than 100 µM; in the assay with UACC-62 melanoma it was 55.2 µM; with UO-31 renal, more than 100 µM.

(Values after PubChem BioAssay (NCI).)
